{"source": "PubChem BioAssay (NCI)", "assay_in_all_cases": "NCI-60 cell line screen, 384-well format", "key": {"[1]": {"test_system": "786-0 renal"}, "[2]": {"test_system": "A498 renal"}, "[3]": {"test_system": "A549 NSCLC"}, "[4]": {"test_system": "ACHN renal"}, "[5]": {"test_system": "BT-549 breast"}, "[6]": {"test_system": "CAKI-1 renal"}, "[7]": {"test_system": "CCRF-CEM leukemia"}, "[8]": {"test_system": "COLO 205 colon"}, "[9]": {"test_system": "DU-145 prostate"}, "[10]": {"test_system": "EKVX NSCLC"}, "[11]": {"test_system": "HCC-2998 colon"}, "[12]": {"test_system": "HCT-116 colon"}, "[13]": {"test_system": "HCT-15 colon"}, "[14]": {"test_system": "HL-60(TB) leukemia"}, "[15]": {"test_system": "HOP-62 NSCLC"}, "[16]": {"test_system": "HOP-92 NSCLC"}, "[17]": {"test_system": "IGROV1 ovarian"}, "[18]": {"test_system": "KM12 colon"}, "[19]": {"test_system": "LOX IMVI melanoma"}, "[20]": {"test_system": "MALME-3M melanoma"}, "[21]": {"test_system": "MDA-MB-435 melanoma"}, "[22]": {"test_system": "MDA-MB-468 breast"}, "[23]": {"test_system": "MOLT-4 leukemia"}, "[24]": {"test_system": "NCI-H226 lung"}, "[25]": {"test_system": "NCI-H23 lung"}, "[26]": {"test_system": "NCI-H322M lung"}, "[27]": {"test_system": "NCI-H460 NSCLC"}, "[28]": {"test_system": "NCI-H522 lung"}, "[29]": {"test_system": "NCI/ADR-RES ovarian"}, "[30]": {"test_system": "OVCAR-3 ovarian"}, "[31]": {"test_system": "OVCAR-4 ovarian"}, "[32]": {"test_system": "OVCAR-8 ovarian"}, "[33]": {"test_system": "PC-3 prostate"}, "[34]": {"test_system": "RPMI-8226 leukemia"}, "[35]": {"test_system": "RXF 393 renal"}, "[36]": {"test_system": "SF-268 CNS"}, "[37]": {"test_system": "SF-539 CNS"}, "[38]": {"test_system": "SK-OV-3 ovarian"}, "[39]": {"test_system": "SN12C renal"}, "[40]": {"test_system": "SNB-19 CNS"}, "[41]": {"test_system": "SNB-75 CNS"}, "[42]": {"test_system": "SR leukemia"}, "[43]": {"test_system": "SW-620 colon"}, "[44]": {"test_system": "TK-10 renal"}, "[45]": {"test_system": "U251 glioblastoma"}, "[46]": {"test_system": "UACC-62 melanoma"}, "[47]": {"test_system": "UO-31 renal"}}, "note": "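GI50 marks 50% less growth. TGI marks complete inhibition of growth.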"}
{"smiles": "Cc1ccc(S(=O)(=O)Cc2nc(-c3ccc(C(=O)NCc4cccnc4)cc3)oc2C)cc1", "values": [{"measurement": "GI50", "setting": "[1]", "value": "< 0.01", "unit": "µM"}, {"measurement": "TGI", "setting": "[1]", "value": 0.0161, "unit": "µM"}, {"measurement": "GI50", "setting": "[2]", "value": 0.0569, "unit": "µM"}, {"measurement": "TGI", "setting": "[2]", "value": 0.691, "unit": "µM"}, {"measurement": "GI50", "setting": "[3]", "value": 0.0194, "unit": "µM"}, {"measurement": "TGI", "setting": "[3]", "value": 0.0419, "unit": "µM"}, {"measurement": "GI50", "setting": "[4]", "value": 0.0125, "unit": "µM"}, {"measurement": "TGI", "setting": "[4]", "value": 0.0287, "unit": "µM"}, {"measurement": "GI50", "setting": "[5]", "value": 0.0179, "unit": "µM"}, {"measurement": "TGI", "setting": "[5]", "value": 0.0327, "unit": "µM"}, {"measurement": "GI50", "setting": "[6]", "value": "< 0.01", "unit": "µM"}, {"measurement": "TGI", "setting": "[6]", "value": 0.0155, "unit": "µM"}, {"measurement": "GI50", "setting": "[7]", "value": "< 0.01", "unit": "µM"}, {"measurement": "TGI", "setting": "[7]", "value": "< 0.01", "unit": "µM"}, {"measurement": "GI50", "setting": "[8]", "value": "< 0.01", "unit": "µM"}, {"measurement": "TGI", "setting": "[8]", "value": "< 0.01", "unit": "µM"}, {"measurement": "GI50", "setting": "[9]", "value": 0.0159, "unit": "µM"}, {"measurement": "TGI", "setting": "[9]", "value": 0.0308, "unit": "µM"}, {"measurement": "GI50", "setting": "[10]", "value": "< 0.01", "unit": "µM"}, {"measurement": "TGI", "setting": "[10]", "value": 0.0251, "unit": "µM"}, {"measurement": "GI50", "setting": "[11]", "value": "< 0.01", "unit": "µM"}, {"measurement": "TGI", "setting": "[11]", "value": "< 0.01", "unit": "µM"}, {"measurement": "GI50", "setting": "[12]", "value": "< 0.01", "unit": "µM"}, {"measurement": "TGI", "setting": "[12]", "value": "< 0.01", "unit": "µM"}, {"measurement": "GI50", "setting": "[13]", "value": "< 0.01", "unit": "µM"}, {"measurement": "TGI", "setting": "[13]", "value": 0.0163, "unit": "µM"}, {"measurement": "GI50", "setting": "[14]", "value": "< 0.01", "unit": "µM"}, {"measurement": "TGI", "setting": "[14]", "value": "< 0.01", "unit": "µM"}, {"measurement": "GI50", "setting": "[15]", "value": "< 0.01", "unit": "µM"}, {"measurement": "TGI", "setting": "[15]", "value": 0.0119, "unit": "µM"}, {"measurement": "GI50", "setting": "[16]", "value": 0.022, "unit": "µM"}, {"measurement": "TGI", "setting": "[16]", "value": 0.0526, "unit": "µM"}, {"measurement": "GI50", "setting": "[17]", "value": 0.0112, "unit": "µM"}, {"measurement": "TGI", "setting": "[17]", "value": 0.0237, "unit": "µM"}, {"measurement": "GI50", "setting": "[18]", "value": "< 0.01", "unit": "µM"}, {"measurement": "TGI", "setting": "[18]", "value": 0.0119, "unit": "µM"}, {"measurement": "GI50", "setting": "[19]", "value": 0.0171, "unit": "µM"}, {"measurement": "TGI", "setting": "[19]", "value": 0.0787, "unit": "µM"}, {"measurement": "GI50", "setting": "[20]", "value": 0.0191, "unit": "µM"}, {"measurement": "TGI", "setting": "[20]", "value": 0.0438, "unit": "µM"}, {"measurement": "GI50", "setting": "[21]", "value": 0.0132, "unit": "µM"}, {"measurement": "TGI", "setting": "[21]", "value": 0.0261, "unit": "µM"}, {"measurement": "GI50", "setting": "[22]", "value": 0.0118, "unit": "µM"}, {"measurement": "TGI", "setting": "[22]", "value": 0.0261, "unit": "µM"}, {"measurement": "GI50", "setting": "[23]", "value": "< 0.01", "unit": "µM"}, {"measurement": "TGI", "setting": "[23]", "value": "< 0.01", "unit": "µM"}, {"measurement": "GI50", "setting": "[24]", "value": 0.119, "unit": "µM"}, {"measurement": "TGI", "setting": "[24]", "value": 0.602, "unit": "µM"}, {"measurement": "GI50", "setting": "[25]", "value": "< 0.01", "unit": "µM"}, {"measurement": "TGI", "setting": "[25]", "value": 0.0202, "unit": "µM"}, {"measurement": "GI50", "setting": "[26]", "value": "< 0.01", "unit": "µM"}, {"measurement": "TGI", "setting": "[26]", "value": "< 0.01", "unit": "µM"}, {"measurement": "GI50", "setting": "[27]", "value": 0.0216, "unit": "µM"}, {"measurement": "TGI", "setting": "[27]", "value": 0.0473, "unit": "µM"}, {"measurement": "GI50", "setting": "[28]", "value": "< 0.01", "unit": "µM"}, {"measurement": "TGI", "setting": "[28]", "value": "< 0.01", "unit": "µM"}, {"measurement": "GI50", "setting": "[29]", "value": 0.0152, "unit": "µM"}, {"measurement": "TGI", "setting": "[29]", "value": 0.0294, "unit": "µM"}, {"measurement": "GI50", "setting": "[30]", "value": "< 0.01", "unit": "µM"}, {"measurement": "TGI", "setting": "[30]", "value": "< 0.01", "unit": "µM"}, {"measurement": "GI50", "setting": "[31]", "value": 0.0193, "unit": "µM"}, {"measurement": "TGI", "setting": "[31]", "value": 0.0396, "unit": "µM"}, {"measurement": "GI50", "setting": "[32]", "value": "< 0.01", "unit": "µM"}, {"measurement": "TGI", "setting": "[32]", "value": "< 0.01", "unit": "µM"}, {"measurement": "GI50", "setting": "[33]", "value": "< 0.01", "unit": "µM"}, {"measurement": "TGI", "setting": "[33]", "value": "< 0.01", "unit": "µM"}, {"measurement": "GI50", "setting": "[34]", "value": "< 0.01", "unit": "µM"}, {"measurement": "TGI", "setting": "[34]", "value": "< 0.01", "unit": "µM"}, {"measurement": "GI50", "setting": "[35]", "value": 0.0169, "unit": "µM"}, {"measurement": "TGI", "setting": "[35]", "value": 0.0334, "unit": "µM"}, {"measurement": "GI50", "setting": "[36]", "value": "< 0.01", "unit": "µM"}, {"measurement": "TGI", "setting": "[36]", "value": 0.0129, "unit": "µM"}, {"measurement": "GI50", "setting": "[37]", "value": "< 0.01", "unit": "µM"}, {"measurement": "TGI", "setting": "[37]", "value": "< 0.01", "unit": "µM"}, {"measurement": "GI50", "setting": "[38]", "value": "< 0.01", "unit": "µM"}, {"measurement": "TGI", "setting": "[38]", "value": "< 0.01", "unit": "µM"}, {"measurement": "GI50", "setting": "[39]", "value": "< 0.01", "unit": "µM"}, {"measurement": "TGI", "setting": "[39]", "value": "< 0.01", "unit": "µM"}, {"measurement": "GI50", "setting": "[40]", "value": "< 0.01", "unit": "µM"}, {"measurement": "TGI", "setting": "[40]", "value": "< 0.01", "unit": "µM"}, {"measurement": "GI50", "setting": "[41]", "value": 0.0239, "unit": "µM"}, {"measurement": "TGI", "setting": "[41]", "value": 0.0532, "unit": "µM"}, {"measurement": "GI50", "setting": "[42]", "value": 0.0181, "unit": "µM"}, {"measurement": "TGI", "setting": "[42]", "value": 0.0333, "unit": "µM"}, {"measurement": "GI50", "setting": "[43]", "value": "< 0.01", "unit": "µM"}, {"measurement": "TGI", "setting": "[43]", "value": "< 0.01", "unit": "µM"}, {"measurement": "GI50", "setting": "[44]", "value": 0.0191, "unit": "µM"}, {"measurement": "TGI", "setting": "[44]", "value": 0.0357, "unit": "µM"}, {"measurement": "GI50", "setting": "[45]", "value": "< 0.01", "unit": "µM"}, {"measurement": "TGI", "setting": "[45]", "value": "< 0.01", "unit": "µM"}, {"measurement": "GI50", "setting": "[46]", "value": 0.0165, "unit": "µM"}, {"measurement": "TGI", "setting": "[46]", "value": 0.0345, "unit": "µM"}, {"measurement": "GI50", "setting": "[47]", "value": "< 0.01", "unit": "µM"}, {"measurement": "TGI", "setting": "[47]", "value": "< 0.01", "unit": "µM"}]}
